Source: US11660290B2, “Affinity based drug release formulations” (McMaster University, priority 2016, dated 2023)

Columns and labels:
[1] = molecular target: Alexa-Fluor 488 streptavidin (Streptomyces avidinii, UniProt P22629); experiment: Release study of fluorescent streptavidin from agarose-desthiobiotin hydrogels; conditions: for release of fluorescent streptavidin from the hydrogel (rate, in words): 1 wt % Ag-D gel, insoluble biotin derivative, PBS
Description: Ag-D was dissolved in 0.1M PBS at 2 wt %, Alexa-Fluor 488 streptavidin was subsequently added and the mixture was incubated at 37° C. for 2 h. […] Gels were cured at 4 C for 20 min to 1 hr and initial fluorescent readings of the gel were taken. 200 uL of PBS was subsequently dispensed overtop of the gels and collected and replenished at specific time intervals. The loss of fluorescence as well as the released fluorescent streptavidin was measured at specific time points (FIGS. 5B and 6).

HUVEC = system: HUVEC
Description: Additionally, toxicity studies were performed using the MTS assay using HUVEC, assessing the toxicity of the components of the drug delivery system as well as the complete drug delivery system (FIGS. 11 A and B).

[2] = Transparency of agarose hydrogels with solid suspension of oleylbiotin; format: physicochemical; conditions: solid suspension in agarose hydrogel

Chain of Alexa-Fluor 488 streptavidin (P22629 25-183): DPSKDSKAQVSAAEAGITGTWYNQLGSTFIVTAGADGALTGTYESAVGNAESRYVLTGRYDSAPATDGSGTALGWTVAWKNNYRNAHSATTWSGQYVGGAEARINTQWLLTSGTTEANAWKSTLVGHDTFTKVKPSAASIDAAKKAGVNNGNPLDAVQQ

For `O=C(O)CCCC[C@@H]1SC[C@@H]2NC(=O)N[C@@H]21` [biotin, reference compound], the “release of fluorescent streptavidin from the hydrogel (rate, in words)” value (from here on “release of fluorescent streptavidin”) [1] was “most rapid release”.

For oleyl-biotin, the “release of fluorescent streptavidin” value [1] was “slowest and longest release”, the “time over which oleylbiotin concentration modulates the release of streptavidin” value ([1]; various oleylbiotin concentrations, system of Example 1) was “at least 150 days” and the “duration of streptavidin release (extrapolation of preliminary experiments)” value ([1]; wild-type streptavidin) was > 100 days. For the same compound, the “toxicity of single components of the drug delivery system” value (HUVEC) was “None of the components display any inherent toxicity except for the solid suspension of oleylbiotin” and the “concentration that did not decrease the transparency of agarose gels” value [2] was ≤ 80 µM.

For Tert-butyl biotin, the “release of fluorescent streptavidin” value [1] was “slower release”.
